Experimental findings from patent US20220299513A1, “IRF2 AS A PROGNOSTIC BIOMARKER AND TARGET FOR AUGMENTING IMMUNOTHERAPY” (University of Massachusetts, priority 2019, published 2022) are described below.

The test system of assay [1] is TAP2 mRNA in F221 murine sarcoma cells. In words: TAP2 mRNA levels by qPCR in drug-treated F221 cells. The assay is classed as cell-based. Conditions: Vorinostat 1 uM or 5 uM, Decitabine 5 uM, 24 hrs, vs DMSO control. As for the experimental part: (§1) FIGS. 13A-B. (A) IRF2 & TAP2 mRNA levels, and MHC I surface protein levels in […] murine sarcoma cells treated with Vorinostat (1 uM or 5 uM), Decitabine (5 uM), or control diluent (DMSO) with no drug; (B) surface expression of MHC I on […] MCA-sarcoma cells treated with Vorinostat (5 uM) and/or Decitabine (5 uM). RNA was extracted from cell lines using the RNeasy kit (Qiagen) or from formalin-fixed paraffin-embedded non-small cell lung cancers using the RNeasy FFPE kit (Qiagen) and reverse transcribed to cDNA using EcoDry pre-mix random hexamers (Clontech). 50 ng cDNA were used per well (done in triplicate) with indicated TaqMan probes (Applied Biosystems), according to the manufacturer's instructions. The TaqMan probes used were as follows: We tested two epigenetic modifiers on an IRF2low, MHC I low murine cancer cell line ([…] MCA-sarcoma). […] murine sarcoma cells were treated with Vorinostat (1 uM or 5 uM), Decitabine (5 uM), or control diluent (DMSO) with no drug for 24 hrs and then assayed for IRF2 and TAP2 mRNA levels by qPCR and MHC I protein levels by flow cytometry.
For orientation: In qPCR the cycle at which signal appears reflects the starting amount.

Assay [2] relates to IRF2 mRNA in F221 murine sarcoma cells. Nature of the assay: IRF2 mRNA levels by qPCR in drug-treated F221 cells. The assay is classed as cell-based. As to conditions: Vorinostat 1 uM or 5 uM, Decitabine 5 uM, 24 hrs, vs DMSO control. How it is done:
as §1

In assay [3] the test system is surface MHC I (H-2Kb) on F221 MCA-sarcoma cells. In words: Surface MHC I protein levels by flow cytometry in drug-treated F221 cells. The assay is classed as cell-based. As to conditions: F221 murine sarcoma cells; Vorinostat 1 uM or 5 uM, Decitabine 5 uM; 24 hrs; vs DMSO control. (In general: Flow cytometry measures light scatter and fluorescence of single cells or particles in a stream.)
Excerpt: Where indicated, mouse cells were blocked with 2.4G2 and stained for surface MHC class I levels with anti-K^b-APC (eBioscience, AF6-88.5.5.3), MHC class II levels with anti-I^A/I^E-PECy7 (BioLegend, M5/114.15.2), PD-L1 levels with anti-PD-L1-PE (BioLegend, 10F.9G2), or with isotype controls (eBioscience mouse IgG2a-APC eBM2a, eBioscience rat IgG2b κ-PE eB149) at 1:200 dilutions.
We tested two epigenetic modifiers on an IRF2low, MHC I low murine cancer cell line (F221 MCA-sarcoma). F221 murine sarcoma cells were treated with Vorinostat (1 uM or 5 uM), Decitabine (5 uM), or control diluent (DMSO) with no drug for 24 hrs and then assayed for IRF2 and TAP2 mRNA levels by qPCR and MHC I protein levels by flow cytometry.
In addition, F221 MCA-sarcoma cells were treated with a combination of Vorinostat (5 uM) and/or Decitabine (5 uM) for 24 hrs and then surface expression of MEW I molecules were quantified by flow cytometry.

For assay [4], the system named is surface MHC-I on IRF2-KO DC3.2. In words: Surface MHC-I on IRF2-KO DC3.2 after interferon stimulation (flow cytometry). The assay is classed as cell-based, mouse. How it is done:
(§2) FIGS. 5A-E. IRF2-IRF1 balance. (A) Normalized MFI of surface MHC I and PD-L1 levels on the indicated single or double (IRF1+IRF2, double knock out (DKO)) DC3.2 knockout lines after overnight incubation with either media alone or 2 ng/mL IFNγ; bars represent mean+SEM (N≥3); (B) Western blot for IRF1 and IRF2 (and β-actin as loading control) in the DC3.2 knockout lines in the absence or presence of 2 ng/mL IFNγ for the durations indicated; (C) ChIP-qPCR of DC3.2 WT cells stimulated with ±2 ng/mL IFNγ for 2 hrs for TAP2 (top), ERAP1 (middle), or PD-L1 (bottom) DNA with rabbit anti-IRF2 IgG, rabbit anti-IRF1 IgG, or normal rabbit IgG (control). Bars represent mean +SEM fold enrichment (2^^-ΔCt) over the normal rabbit IgG control IP (N=2); (d, e) Heatmap of genes differentially expressed between the DC knockout lines (D) at baseline or (E) after stimulation with ±2 ng/mL IFNγ for 2 hrs. For clarity, only a few genes are shown. Statistical analysis by two-tailed ratio paired t-tests. *p<0.05, **p<0.01, ***p<0.001, ****p<0.0001, ns=not significant.
FIGS. 10A-B. (A) Normalized MFI of surface MHC I and PD-L1 levels on DC3.2 stable knockout lines after overnight incubation with 5,000 U/mL IFNα; bars represent mean+SEM (N=3). Statistical analysis by two-tailed ratio paired t-tests. […]

Assay [5] deals with PD-L1 promoter in DC3.2 WT cells. In words: ChIP-qPCR of IRF1/IRF2 binding to the PD-L1 promoter after IFNγ stimulation. The assay is classed as cell-based, mouse. As to conditions: 2 ng/mL IFNγ for 2 hrs. As for the experimental part: as §2
It is well-established that IRF1 can promote IFNγ-inducible activation of PD-L1^27,28. […]
ChIP procedure generally followed the Thermo Fisher ChIP protocol. […] Chromatin was sheared by sonication for 20 min and fragment size (˜300 bp) was determined by gel electrophoresis. […]

The subject of assay [6] is surface MHC-I on A549 cells. In words: Surface MHC-I on IFNγ-stimulated A549 (flow cytometry). Conditions: overnight IFNγ stimulation. The assay is classed as cell-based, human. The text has this:
(§3) FIGS. 6A-J. IRF2 and cancer. (A) Differential IRF2 expression in tumor and normal tissue from patients with the indicated cancer types (TCGA abbreviations), as queried from TIMER^29; (B) IRF2 mRNA expression in patient NSCLC specimens scored as PD-L1 low (1-50%) or high (>50%) by immunohistochemistry. IRF2 mRNA expression was normalized to GAPDH mRNA expression in each lung specimen and then IRF2 expression across specimens was compared by calculating fold changes over the lowest IRF2-expressing specimen, which was set equal to 1. Statistical analysis by Mann-Whitney U test, **p<0.01; (C) TAP2 (top) and ERAP1 (bottom) mRNA correlations with IRF2 mRNA in NSCLC specimens. Linear regression models shown with R^2 for goodness of fit. (D-E) Geometric MFI of surface MHC I (left) and PD-L1 (right) on (D) unstimulated or (E) overnight IFNγ-stimulated A549 lines knocked out for IRF2 (“IRF2 KO”) or control (“WT”) or overexpressing IRF2 or empty vector (EV) as control. Bars represent mean +SEM (N=3). Statistical analysis by two-tailed ratio paired t-tests. *p<0.05, **p<0.01, ***p<0.001; (F) Geometric MFI of surface MHC-I and PD-L1 on unstimulated or IFNγ-stimulated human breast carcinoma (BT20 and MCF7) lines knocked out for IRF2 (“IRF2 KO”) or control (“WT”). […] After 4 hours, specific killing was quantified by flow cytometry. […]

The test system of assay [7] is surface PD-L1 on A549 cells. In words: Surface PD-L1 on IFNγ-stimulated A549 (flow cytometry). The assay is classed as cell-based, human. As to conditions: overnight IFNγ stimulation.
Excerpt: as §3

As to `O=C(CCCCCCC(=O)Nc1ccccc1)NO` [Vorinostat, Suberoylanilide hydroxamic acid], in assay [1], the “mRNA for IRF2's target gene, TAP2” value is on record as “increased”. Moreover, in assay [2], the “expression of IRF2 mRNA” value is on record as “increased”. The “surface MHC I (H-2Kb) protein levels” value in assay [3] is “increased”.
For the compound IFNα, in assay [4] (overnight incubation with 5,000 U/mL IFNα), the “surface MHC-I expression in the IRF2-KO DC3.2” value was “restored”.
For “IFNγ: interferon gamma used to stimulate cells (mouse IFNγ 2 ng/mL for DC3.2)”, in assay [5], the “IRF1 binding to the PD-L1 promoter” value is “increased IRF1 binding” and the “IRF2 binding to the PD-L1 promoter” value was “decreased IRF2 binding”. Moreover, the “surface MHC-I expression in the IRF2-KO DC3.2” value in assay [4] (overnight incubation with 2 ng/mL IFNγ) is “restored”. In addition, the “surface MHC-I expression” value in assay [6] is recorded as “augmented”. Besides, in assay [7], the “surface PD-L1 expression” value was “augmented”.
